Results published in patent US20220175766A1, “COMPOSITIONS AND METHODS OF TREATMENT” (GB004, Inc., priority 2019, published 2022).
Read-outs that look alike come from different tables or passages of the source.

Assays:
pKa of Compound 1 = format: physicochemical; settings: two basic groups
Source text: The pKa value expresses the strength of acids and base, i.e. the tendency for an acid to lose a proton or a base to accept a proton (Bronsted J. N. Rec. trav. Chim. (47), 718, 1923) and the protonation and deprotonation of the basic groups in the compound has a marked effect upon the solubility of Compound 1 in aqueous media. Consequently, the solubility of Compound 1 is highly dependent upon pH.

[1] = Phase 1a multiple ascending dose study (oral solution): plasma pharmacokinetics; format: in vivo, human; settings: for concentration at 0.5 h: Hour 0.5; for concentration at 0.5 h / concentration at 1 h / concentration at 2 h / concentration at 3 h / concentration at 4 h / concentration at 6 h / concentration at 8 h / concentration at 12 h / concentration at 16 h / concentration at 24 h: read-out: Compound 1 concentration, Conc (SD); for concentration at 1 h: Hour 1; for concentration at 2 h: Hour 2; for concentration at 3 h: Hour 3; for concentration at 4 h: Hour 4; for concentration at 6 h: Hour 6; for concentration at 8 h: Hour 8; for concentration at 12 h: Hour 12; for concentration at 16 h: Hour 16; for concentration at 24 h: Hour 24
Method: Compound 1 was administered as the HCl-salt (prepared analogously to Example 2.1).
The secondary objective was to characterize the multiple dose pharmacokinetic (PK) parameters of Compound 1, after ascending doses. Secondary endpoints included determination of PK parameters in plasma and urine, fecal excretion and assessment of colonic biopsy samples.
Blood samples were collected at the following time points relative to dose administration on Day 1 and Day 7: pre-dose; 0.5, 1, 2, 3, 4, 6, 8, 12, 16 and 24 hours post dose. Analysis and concentration determinations were performed using a liquid chromatography-mass spectrometry and liquid chromatography-tandem mass spectrometry (LC/MS/MS) method.

[2] = Cohort 1, 60 mg once daily, Day 7
[3] = Cohort 2, 120 mg once daily, Day 7
[4] = Cohort 3, 240 mg once daily, Day 7
[5] = Cohort 4, 120 mg once daily, Day 7
[6] = Cohort 5, 60 mg once daily, Day 7
[7] = human, plasma, oral, 60 mg, Cohort 1, 60 mg once daily, Day 7
[8] = human, plasma, oral, 60 mg, Cohort 1, 60 mg, Day 1
[9] = human, plasma, oral, 60 mg, Cohort 5, 60 mg once daily, Day 7
[10] = human, plasma, oral, 60 mg, Cohort 5, 60 mg, Day 1
[11] = human, plasma, oral, 120 mg, Cohort 2, 120 mg once daily, Day 7

CC(C)(C)OC(=O)N1CCN(Cc2ccn(Cc3ccc(Cl)cc3)c(=O)c2O)CC1 [Compound 1, tert-butyl 4-((1-(4-chlorobenzyl)-3-hydroxy-2-oxo-1,2-dihydropyridin-4-yl)methyl)piperazine-1-carboxylate]
pKa (pKa of Compound 1): 6.5 | ARAUC (accumulation ratio of AUC), mean [1, 2]: 2.1 | ARCmax (accumulation ratio of Cmax), mean [1, 2]: 1.0 | Tmax, median (range) ([1]; Cohort 1, 60 mg, Day 1): 0.5 (0.5-1.0) h | ARAUC (accumulation ratio of AUC), mean [1, 3]: 1.8 | ARCmax (accumulation ratio of Cmax), mean [1, 3]: 1.2 | ARAUC (accumulation ratio of AUC), mean [1, 4]: 1.4 | ARCmax (accumulation ratio of Cmax), mean [1, 4]: 1.0 | ARAUC (accumulation ratio of AUC), mean [1, 5]: 2.3 | ARCmax (accumulation ratio of Cmax), mean [1, 5]: 1.3 | Tmax, median (range) ([1]; Cohort 4, 120 mg, Day 1): 0.5 (0.5-1.0) h | ARAUC (accumulation ratio of AUC), mean [1, 6]: 3.0 | ARCmax (accumulation ratio of Cmax), mean [1, 6]: 1.3 | concentration at 0.5 h [1, 7]: 4.33 ng/mL | concentration at 1 h [1, 7]: 3.02 ng/mL | concentration at 2 h [1, 7]: 1.85 ng/mL | concentration at 3 h [1, 7]: 0 ng/mL | concentration at 4 h [1, 7]: 0 ng/mL | concentration at 6 h [1, 7]: 0 ng/mL | concentration at 8 h [1, 7]: 0 ng/mL | concentration at 12 h [1, 7]: 0 ng/mL | concentration at 16 h [1, 7]: 0 ng/mL | concentration at 24 h [1, 7]: 0 ng/mL | AUC(0-t) ([1]; human, plasma, oral, 60 mg, Cohort 1, 60 mg once daily, Day 7, read-out: AUC(0-t), mean): 17 ng·h/mL | Cmax ([1]; human, plasma, oral, 60 mg, Cohort 1, 60 mg once daily, Day 7, read-out: Cmax, mean): 4.33 ng/mL | concentration at 0.5 h [1, 8]: 3.88 ng/mL | concentration at 1 h [1, 8]: 3.16 ng/mL | concentration at 4 h [1, 8]: 0 ng/mL | concentration at 6 h [1, 8]: 0 ng/mL | concentration at 8 h [1, 8]: 0 ng/mL | concentration at 12 h [1, 8]: 0 ng/mL | concentration at 16 h [1, 8]: 0 ng/mL | concentration at 24 h [1, 8]: 0 ng/mL | AUC(0-t) ([1]; human, plasma, oral, 60 mg, Cohort 1, 60 mg, Day 1, read-out: AUC(0-τ) column, AUClast is presented (footnote b), mean (SD)): 5.32 ng·h/mL | Cmax ([1]; human, plasma, oral, 60 mg, Cohort 1, 60 mg, Day 1, read-out: Cmax, mean (SD)): 4.11 ng/mL | concentration at 0.5 h [1, 9]: 6.24 ng/mL | concentration at 1 h [1, 9]: 4.6 ng/mL | concentration at 2 h [1, 9]: 2.57 ng/mL | concentration at 3 h [1, 9]: 1.99 ng/mL | concentration at 4 h [1, 9]: 1.62 ng/mL | concentration at 6 h [1, 9]: 2.15 ng/mL | concentration at 8 h [1, 9]: 2 ng/mL | concentration at 12 h [1, 9]: 1.7 ng/mL | concentration at 16 h [1, 9]: 1.59 ng/mL | concentration at 24 h [1, 9]: 1.18 ng/mL | AUC(0-t) ([1]; human, plasma, oral, 60 mg, Cohort 5, 60 mg once daily, Day 7, read-out: AUC(0-t), mean): 53.2 ng·h/mL | Cmax ([1]; human, plasma, oral, 60 mg, Cohort 5, 60 mg once daily, Day 7, read-out: Cmax, mean): 6.31 ng/mL | concentration at 0.5 h [1, 10]: 4.83 ng/mL | concentration at 1 h [1, 10]: 3.94 ng/mL | concentration at 3 h [1, 10]: 0 ng/mL | concentration at 4 h [1, 10]: 0 ng/mL | concentration at 6 h [1, 10]: 0 ng/mL | concentration at 8 h [1, 10]: 0 ng/mL | concentration at 12 h [1, 10]: 0 ng/mL | concentration at 16 h [1, 10]: 0 ng/mL | concentration at 24 h [1, 10]: 0 ng/mL | AUC ([1]; human, plasma, oral, 60 mg, Cohort 5, 60 mg, Day 1, read-out: AUC(0-τ), mean (SD)): 28.7 ng·h/mL | Cmax ([1]; human, plasma, oral, 60 mg, Cohort 5, 60 mg, Day 1, read-out: Cmax, mean (SD)): 5.06 ng/mL | concentration at 0.5 h [1, 11]: 11.1 ng/mL | concentration at 1 h [1, 11]: 7.7 ng/mL | concentration at 2 h [1, 11]: 4.5 ng/mL | concentration at 3 h [1, 11]: 3.19 ng/mL | concentration at 4 h [1, 11]: 1.6 ng/mL | concentration at 6 h [1, 11]: 2.04 ng/mL | concentration at 8 h [1, 11]: 2.26 ng/mL | concentration at 12 h [1, 11]: 1.41 ng/mL
